Reference: patent publication US20230279018A1, “AP[…] INHIBITION” (priority 2020, published 2023)
pIC50: −log10 of the molar value.

Columns and labels:
Pf-Mut (L550V) cFRS = molecular target: T1, Pf-Mut (L550V) cFRS (Plasmodium falciparum, UniProt Q8I246, L550V); test: malachite green-based aminoacylation assay, Pf-Mut (L550V) cFRS; type: biochemical; conditions: aminoacylation activity; read-out: cFRS IC50, Pf mutant (L550V)
T1 sequence (Q8I246 1-575 L550V): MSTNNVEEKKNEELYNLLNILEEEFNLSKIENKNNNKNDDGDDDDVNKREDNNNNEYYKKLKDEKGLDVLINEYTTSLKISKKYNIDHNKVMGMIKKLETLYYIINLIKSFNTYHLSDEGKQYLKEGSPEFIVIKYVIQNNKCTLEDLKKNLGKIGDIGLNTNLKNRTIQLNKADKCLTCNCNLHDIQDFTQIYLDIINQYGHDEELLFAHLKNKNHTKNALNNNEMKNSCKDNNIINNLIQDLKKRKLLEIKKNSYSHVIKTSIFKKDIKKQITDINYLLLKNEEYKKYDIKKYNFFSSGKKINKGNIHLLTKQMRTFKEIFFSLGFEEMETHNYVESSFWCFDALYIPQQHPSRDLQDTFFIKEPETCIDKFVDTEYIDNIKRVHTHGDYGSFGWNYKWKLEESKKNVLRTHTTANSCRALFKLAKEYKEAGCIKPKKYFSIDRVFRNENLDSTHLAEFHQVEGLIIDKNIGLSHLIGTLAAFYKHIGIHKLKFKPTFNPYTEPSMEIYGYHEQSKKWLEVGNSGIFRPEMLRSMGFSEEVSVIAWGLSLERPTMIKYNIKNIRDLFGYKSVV
T1 sequence (Q8IIW2 1-623 partner): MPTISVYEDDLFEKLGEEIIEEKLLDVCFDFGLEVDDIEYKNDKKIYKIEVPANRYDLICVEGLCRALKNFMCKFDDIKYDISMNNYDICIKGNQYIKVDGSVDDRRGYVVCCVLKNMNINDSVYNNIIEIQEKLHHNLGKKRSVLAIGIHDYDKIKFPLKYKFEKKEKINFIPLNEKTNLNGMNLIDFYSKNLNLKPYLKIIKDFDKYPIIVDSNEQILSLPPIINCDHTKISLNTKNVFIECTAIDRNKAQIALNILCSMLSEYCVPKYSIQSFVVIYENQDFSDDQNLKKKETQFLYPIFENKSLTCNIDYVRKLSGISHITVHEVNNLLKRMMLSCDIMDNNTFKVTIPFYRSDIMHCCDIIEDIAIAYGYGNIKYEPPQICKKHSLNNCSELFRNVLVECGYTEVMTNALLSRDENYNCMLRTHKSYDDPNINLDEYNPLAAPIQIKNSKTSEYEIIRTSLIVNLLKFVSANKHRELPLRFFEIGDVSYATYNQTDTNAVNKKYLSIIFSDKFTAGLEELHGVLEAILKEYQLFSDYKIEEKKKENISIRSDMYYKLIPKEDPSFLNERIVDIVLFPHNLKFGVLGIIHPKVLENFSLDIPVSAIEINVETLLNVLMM
Source text: (§1) EC50 assays were run as described in Int'l Pub Nos. WO 2015070204, WO 2018175385, and Kato, N, et al. Nature 538 (2016): 344-349, which are hereby incorporated by reference in its entirety. The inhibition of the aminoacylation activity of Pf (Plasmodium falciparum), Pv (Plasmodium vivax), Hs (Human) and Pf-Mut (L550V) cFRS enzymes by Compound 1 are illustrated in FIG. 1.
(§2) The enzymatic activity of purified heterodimeric PfcFRS using malachite green-based aminoacylation assays with substrates L-Phe and ATP was also measured as described in Cestari, I. et al., J Biomol. Screen. 18 (2013): 490-497 and Kato, N, et al. Nature 538 (2016): 344-349, which are hereby incorporated by reference in its entirety. […] Enzymatic reactions (50 μl total volume) were performed in clear, flat-bottomed, 96-well plates (Costar 96-well standard microplates). The reaction mixture was incubated for 2 h at 37° C. The reaction was stopped by adding 12.5 μl of malachite green solution to the reaction mixture and levels of inorganic phosphate (Pi) were detected after incubation of 5 min at room temperature. Absorbance was the measured at 620 nm using a Spectramax M2 (Molecular Devices). Reactions without FRS enzyme were performed as background controls, values of which were subtracted from the reactions with enzyme. […]

HscFRS = molecular target: T2, HscFRS (Homo sapiens, UniProt Q9Y285); test: malachite green-based aminoacylation assay, HscFRS; type: biochemical; conditions: aminoacylation activity
T2 sequence (Q9Y285 1-508): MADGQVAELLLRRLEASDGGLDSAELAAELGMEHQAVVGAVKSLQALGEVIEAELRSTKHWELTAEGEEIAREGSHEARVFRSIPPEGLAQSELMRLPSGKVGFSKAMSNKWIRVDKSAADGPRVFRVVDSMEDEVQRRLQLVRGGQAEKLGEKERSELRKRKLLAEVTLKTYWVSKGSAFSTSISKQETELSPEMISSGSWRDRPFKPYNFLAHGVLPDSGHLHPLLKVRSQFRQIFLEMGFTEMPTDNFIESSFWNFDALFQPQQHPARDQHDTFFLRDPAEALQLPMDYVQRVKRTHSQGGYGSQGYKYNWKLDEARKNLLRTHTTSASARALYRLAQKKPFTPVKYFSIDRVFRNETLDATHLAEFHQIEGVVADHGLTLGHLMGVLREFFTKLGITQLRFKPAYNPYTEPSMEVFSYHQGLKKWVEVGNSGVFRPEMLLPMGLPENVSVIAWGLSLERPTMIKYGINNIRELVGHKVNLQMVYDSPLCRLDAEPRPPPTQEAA
T2 sequence (Q9NSD9 1-589 partner): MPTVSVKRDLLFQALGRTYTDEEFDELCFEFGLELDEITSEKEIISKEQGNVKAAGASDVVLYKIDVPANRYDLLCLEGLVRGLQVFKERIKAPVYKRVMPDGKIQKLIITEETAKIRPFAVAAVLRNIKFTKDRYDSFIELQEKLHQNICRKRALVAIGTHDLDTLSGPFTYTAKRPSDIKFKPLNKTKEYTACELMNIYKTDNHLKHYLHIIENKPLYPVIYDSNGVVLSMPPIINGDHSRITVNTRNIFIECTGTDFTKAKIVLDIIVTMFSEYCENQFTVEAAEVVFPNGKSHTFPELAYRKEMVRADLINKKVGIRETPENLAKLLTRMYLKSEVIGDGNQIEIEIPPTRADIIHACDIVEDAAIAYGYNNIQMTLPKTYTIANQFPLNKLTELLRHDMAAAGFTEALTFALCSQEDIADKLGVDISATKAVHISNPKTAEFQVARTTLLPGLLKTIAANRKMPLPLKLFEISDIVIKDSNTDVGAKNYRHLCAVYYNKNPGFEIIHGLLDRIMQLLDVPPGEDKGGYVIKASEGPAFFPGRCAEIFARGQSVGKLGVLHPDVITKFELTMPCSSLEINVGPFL
Source text: as §1, §2

Compound: COC[C@@H]1[C@H](c2ccc(C#Cc3ccccc3)cc2)[C@@H]2CN(C(=O)Nc3ccc(OC4CC4)cc3)C[C@@H](O)[C@@H](O)CN12 [Compound 1, (3S,4R,8R,9R,10S)—N-(4-cyclopropoxyphenyl)-3,4-dihydroxy-10-(methoxymethyl)-9-(4-(phenylethynyl)phenyl)-1,6-diazabicyclo[6.2.0]decane-6-carboxamide]
- pIC50 (Pf-Mut (L550V) cFRS): 6.00
- pIC50 (HscFRS): 4.92
